This is an account of results in PMC4834642, “Orthogonal ring-closing alkyne and olefin metathesis for the synthesis of small GTPase-targeting bicyclic peptides” (Nature Communications, 2016).

Bridge positions count the residues as written; N and C are the ends. Square brackets hold non-standard residues; d marks the D form. Peptide text beside a SMILES is read from it. * marks the point of attachment. FITC = O=C1OC2(c3ccc(O)cc3Oc3cc(O)ccc32)c2ccc(NC(=S)*)cc21; S5 = C=CCCC[C@](C)(N)C(=O)O; AEEA = NCCOCCOCC(=O)O

For data set [1], the target named is T1, Rab8a6-176(GppNHp) (Homo sapiens, UniProt P61006).
T1 construct: Expression and purification of Rab8a6-176 was performed analog to full-length Rab8a; made in house
T1 sequence (P61006 6-176): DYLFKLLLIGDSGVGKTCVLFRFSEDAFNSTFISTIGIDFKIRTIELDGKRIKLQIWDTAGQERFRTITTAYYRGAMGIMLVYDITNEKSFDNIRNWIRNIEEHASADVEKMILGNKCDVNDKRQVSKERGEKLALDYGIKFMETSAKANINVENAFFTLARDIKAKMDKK
The data set is described as follows: Fluorescence polarization (FP) binding assay of fluorescein-labelled peptides. Conditions: for Rel. Kd (Kd [Peptide]/Kd [StRIP3]) / Kd: FP, fluorescein-PEG labelled peptide 66 nM, 4 h room temperature, 25 mM HEPES pH 7.5; for Rel. Kd (Kd [Peptide]/Kd [StRIP3]): Kd values are single point measurements (n = 1); for Kd: average of triplicate measurements, errors 1σ. Here is the method: Rab8a6–176(GppNHp) was serially diluted in a buffer containing 25 mM HEPES (pH 7.5), 150 mM NaCl, 1 mM MgCl2, 1 mM TCEP, 0.01% Tween 20 and 1 μM GppNHp, treated with 66 nM fluorescein-labelled peptides and incubated for 4 h at room temperature. Fluorescence polarization values (λex=470 nm, λem=525 nm) were determined at room temperature. Initial studies for alkyne macrocyclized peptides were performed as single measurements. Final affinity measurements of a subset of peptides were performed in triplicates. After correction for changes in fluorescence intensity upon binding, the fluorescence anisotoropy data were converted into fraction bound of the FITC-labelled peptide and fitted to a one-site binding model derived from the law of mass action using Kd as the only fitting parameter (for details, see Supplementary Methods)[63]. Nonlinear regression was performed in Prism 5.0 (Graphpad)[64]. […]
using a PD-10 desalting column Sephadex G-25 DNA Grade (GE Healthcare) with elution buffer consisting of 20 mM HEPES (pH 7.5), 50 mM NaCl, 1 mM TCEP. After removal of Mg2+ the protein was diluted to 80 - 100 µM before addition of ZnCl2 (500 µM) and (NH4)2SO4 (200 mM). After addition of alkaline phosphatase (5 U mg-1 Rab protein) the mixture was incubated for 16 h at 4°C. For nucleotide exchange, the mixture contained a 5-fold excess of GppNHp during alkaline phosphatase incubation. Afterwards, the mixture was desalted using a PD-10 desalting column Sephadex G-25 DNA Grade (GE Healthcare) with elution buffer consisting of 25 mM HEPES (pH 7.5) 150 mM NaCl, 1 mM TCEP, 1 mM MgCl2 and 1 µM GppNHp.
Fluorescence polarization assay for the determination of dissociation […]
Rab8a6-176 was serially diluted in a buffer containing 25 mM HEPES (pH 7.5), 150 mM NaCl, 1 mM MgCl2, 1 mM TCEP, 0.01% tween 20 and 1 µM GppNHp (assay buffer), treated with 66 nM fluorescein-labeled peptides and incubated for 4 h at room temperature. Binding assays were performed in 384-well, small volume, black flat-bottom, non-binding plates (Greiner). Fluorescence polarization values (λex = 470 nm, λem = 525 nm) were determined using a Safire II plate reader (Tecan) at room temperature. Initial studies for alkyne macrocyclized peptides were performed as single measurements. Final affinity measurements of a subset of peptides were performed in triplicates. After correction for changes in fluorescence intensity upon binding, the fluorescence anisotoropy data were converted into fraction bound (Supplementary equation 1) of the FITC- labeled peptide and fitted to a one-site binding model derived from the law of mass action using Kd as the only fitting parameter (Supplementary equation 2).4 In case of incomplete binding due to the limited solubility of Rab proteins, anisotropy top-values were extrapolated and constrained as indicated below. Non-linear regression was performed in Prism 5.0 […]
(Supplementary equation 1)
A: observed anisotropy; Afree: anisotropy of free fluorophore; Abound: anisotoropy of bound fluorophore; Q: change in fluorescence intensity between free and bound state […]
(Supplementary equation 2)
Kd: dissociation constant; LT: total concentration of labeled peptide; cRab: protein concentration Microscale Thermophoresis (MST)

Data set [2] in a line: On-resin ring-closing alkyne metathesis (RCAM), alpha-methyl-alpha-alkynyl residues at i,i+4, Mo alkylidyne complex 5 (2 mg/mL, 2 x 0.5 mL), Ar bubbling to remove 2-butyne; bicyclic entries (24-29) additionally closed by RCM (Grubbs I). The settings on record: the molecule shown is the open-chain precursor, toluene, 40.0 °C, 3.0 h.

As for `CC(C)C[C@H](NC(=O)[C@H](CC(C)C)NC(=O)[C@H](Cc1c[nH]cn1)NC(=O)[C@H](Cc1ccc(O)cc1)NC(=O)[C@]1(C)CCCCC(Br)=C(Br)CCCC[C@](C)(NC(=O)[C@H](CCC(=O)O)NC(=O)[C@H](CC(=O)O)NC(=O)[C@H](CC(=O)O)NC(=O)COCCOCCNC(=S)Nc2ccc3c(c2)C(=O)OC32c3ccc(O)cc3Oc3cc(O)ccc32)C(=O)N[C@@H](CCC(=O)O)C(=O)N[C@@H](CCC(N)=O)C(=O)N[C@@H](Cc2ccccc2)C(=O)N1)C(=O)N[C@@H](CO)C(=O)N[C@@H](Cc1ccccc1)C(=O)N[C@@H](CC(N)=O)C(=O)N[C@@H](C)C(=O)N[C@H](C(N)=O)C(C)C` [peptide 21], in data set [1] (FP Kd, Rab8a6-176(GppNHp)), the “Increase in binding affinity compared with StRIP3” value came to 2 fold. Also, in data set [1], the “Rel. Kd (Kd [Peptide]/Kd [StRIP3])” value was 0.40 and the Kd worked out at 10.7 ± 0.5 µM. For the compound `CC#CCCCC[C@](C)(NC(=O)[C@H](Cc1ccccc1)NC(=O)[C@H](CCC(=O)NC(c1ccccc1)(c1ccccc1)c1ccccc1)NC(=O)[C@H](CCC(=O)OC(C)(C)C)NC(=O)[C@](C)(CCCC#CC)NC(=O)[C@H](CCC(=O)OC(C)(C)C)NC(=O)[C@H](CC(=O)OC(C)(C)C)NC(=O)[C@H](CC(=O)OC(C)(C)C)NC(=O)OCC1c2ccccc2-c2ccccc21)C(=O)N[C@@H](Cc1ccc(OC(C)(C)C)cc1)C(=O)N[C@@H](Cc1cn(C(c2ccccc2)(c2ccccc2)c2ccccc2)cn1)C(=O)N[C@@H](CC(C)C)C(=O)N[C@@H](CC(C)C)C(=O)N[C@@H](COC(C)(C)C)C(=O)N[C@@H](Cc1ccccc1)C(=O)N[C@@H](CC(=O)NC(c1ccccc1)(c1ccccc1)c1ccccc1)C(=O)N[C@@H](C)C(=O)N[C@H](C(N)=O)C(C)C`, the ring closure, overall yield in data set [2] (22-membered ring) worked out at 12%. Turning to `CC#CCCCC[C@](C)(NC(=O)[C@H](CCC(=O)OC(C)(C)C)NC(=O)[C@H](CC(=O)OC(C)(C)C)NC(=O)[C@H](CC(=O)OC(C)(C)C)NC(=O)OCC1c2ccccc2-c2ccccc21)C(=O)N[C@@H](CCC(=O)OC(C)(C)C)C(=O)N[C@@H](CCC(=O)NC(c1ccccc1)(c1ccccc1)c1ccccc1)C(=O)N[C@@H](Cc1ccccc1)C(=O)N[C@@](C)(CCCC#CC)C(=O)N[C@@H](Cc1ccc(OC(C)(C)C)cc1)C(=O)N[C@@H](Cc1cn(C(c2ccccc2)(c2ccccc2)c2ccccc2)cn1)C(=O)N[C@@H](CC(C)C)C(=O)N[C@@H](CC(C)C)C(=O)N[C@@H](COC(C)(C)C)C(=O)N[C@@H](Cc1ccccc1)C(=O)N[C@@H](CC(=O)NC(c1ccccc1)(c1ccccc1)c1ccccc1)C(=O)N[C@@H](C)C(=O)N[C@H](C(N)=O)C(C)C`, the ring closure, overall yield in data set [2] (22-membered ring) was 23%. For `CC(C)C[C@H](NC(=O)[C@H](Cc1c[nH]cn1)NC(=O)[C@H](Cc1ccc(O)cc1)NC(=O)[C@]1(C)CCCCC#CCCC[C@](C)(NC(=O)[C@H](CCC(=O)O)NC(=O)[C@H](CC(=O)O)NC(=O)[C@H](CC(=O)O)NC(=O)COCCOCCNC(=S)Nc2ccc3c(c2)C(=O)OC32c3ccc(O)cc3Oc3cc(O)ccc32)C(=O)N[C@@H](CCC(=O)O)C(=O)N[C@@H](CCC(N)=O)C(=O)N[C@@H](Cc2ccccc2)C(=O)N1)C(=O)N[C@@]1(C)CCC/C=C\CCC[C@@](C)(C(=O)N[C@H](C(N)=O)C(C)C)NC(=O)[C@H](CC(N)=O)NC(=O)[C@H](Cc2ccccc2)NC(=O)[C@H](CO)NC1=O` [compound 28], the “Rel. Kd (Kd [Peptide]/Kd [StRIP3])” value in data set [1] was 0.42. For `CC#CCCCC[C@](C)(NC(=O)[C@H](Cc1ccccc1)NC(=O)[C@H](CCC(=O)NC(c1ccccc1)(c1ccccc1)c1ccccc1)NC(=O)[C@H](CCC(=O)OC(C)(C)C)NC(=O)[C@](C)(CCCCC#CC)NC(=O)[C@H](CCC(=O)OC(C)(C)C)NC(=O)[C@H](CC(=O)OC(C)(C)C)NC(=O)[C@H](CC(=O)OC(C)(C)C)NC(=O)OCC1c2ccccc2-c2ccccc21)C(=O)N[C@@H](Cc1ccc(OC(C)(C)C)cc1)C(=O)N[C@@H](Cc1cn(C(c2ccccc2)(c2ccccc2)c2ccccc2)cn1)C(=O)N[C@@H](CC(C)C)C(=O)N[C@@H](CC(C)C)C(=O)N[C@@H](COC(C)(C)C)C(=O)N[C@@H](Cc1ccccc1)C(=O)N[C@@H](CC(=O)NC(c1ccccc1)(c1ccccc1)c1ccccc1)C(=O)N[C@@H](C)C(=O)N[C@H](C(N)=O)C(C)C`, the ring closure, overall yield in data set [2] (23-membered ring) was found to be 16%.

`CC(C)C[C@H](NC(=O)[C@H](CC(C)C)NC(=O)[C@H](Cc1c[nH]cn1)NC(=O)[C@H](Cc1ccc(O)cc1)NC(=O)[C@]1(C)CCC/C=C\CCC[C@](C)(NC(=O)[C@H](CCC(=O)O)NC(=O)[C@H](CC(=O)O)NC(=O)[C@H](CC(=O)O)NC(=O)COCCOCCNC(=S)Nc2ccc3c(c2)C(=O)OC32c3ccc(O)cc3Oc3cc(O)ccc32)C(=O)N[C@@H](CCC(=O)O)C(=O)N[C@@H](CCC(N)=O)C(=O)N[C@@H](Cc2ccccc2)C(=O)N1)C(=O)N[C@@H](CO)C(=O)N[C@@H](Cc1ccccc1)C(=O)N[C@@H](CC(N)=O)C(=O)N[C@@H](C)C(=O)N[C@H](C(N)=O)C(C)C` [StRIP3] ({FITC-AEEA}-DDE[S5]EQF[S5]YHLLSFNAV-NH2; staple (Z) 4-8; C-terminus assumed): in data set [1], the “Rel. Kd (Kd [Peptide]/Kd [StRIP3])” value is listed as 1.00 and binding was put at a Kd of 20.7 ± 0.7 µM.

As for `CC#CCCC[C@](C)(NC(=O)[C@H](Cc1ccccc1)NC(=O)[C@H](CCC(=O)NC(c1ccccc1)(c1ccccc1)c1ccccc1)NC(=O)[C@H](CCC(=O)OC(C)(C)C)NC(=O)[C@](C)(CCCC#CC)NC(=O)[C@H](CCC(=O)OC(C)(C)C)NC(=O)[C@H](CC(=O)OC(C)(C)C)NC(=O)[C@H](CC(=O)OC(C)(C)C)NC(=O)OCC1c2ccccc2-c2ccccc21)C(=O)N[C@@H](Cc1ccc(OC(C)(C)C)cc1)C(=O)N[C@@H](Cc1cn(C(c2ccccc2)(c2ccccc2)c2ccccc2)cn1)C(=O)N[C@@H](CC(C)C)C(=O)N[C@@H](CC(C)C)C(=O)N[C@@H](COC(C)(C)C)C(=O)N[C@@H](Cc1ccccc1)C(=O)N[C@@H](CC(=O)NC(c1ccccc1)(c1ccccc1)c1ccccc1)C(=O)N[C@@H](C)C(=O)N[C@H](C(N)=O)C(C)C`, the ring closure, overall yield in data set [2] (21-membered ring) came out at 0%.
